Laboratory results taken from PMC10897400, “Biochemical and structural characterization of an inositol pyrophosphate kinase from a giant virus” (The EMBO Journal, 2024).

Key:
TvIPK (full length) = molecular target: T1, TvIPK (full length) (Terrestrivirus sp., UniProt A0A3G4ZNY6); test: X-ray crystal structure; type: binding; conditions: co-crystallised with 5 mM ADP, 10 mM MgCl2
T1 construct: gene Terrestrivirus9_15; full-length, codon-optimized, E. coli BL21(DE3); N-terminal His6-MBP tag removed with TEV protease
T1 sequence (A0A3G4ZNY6 1-265): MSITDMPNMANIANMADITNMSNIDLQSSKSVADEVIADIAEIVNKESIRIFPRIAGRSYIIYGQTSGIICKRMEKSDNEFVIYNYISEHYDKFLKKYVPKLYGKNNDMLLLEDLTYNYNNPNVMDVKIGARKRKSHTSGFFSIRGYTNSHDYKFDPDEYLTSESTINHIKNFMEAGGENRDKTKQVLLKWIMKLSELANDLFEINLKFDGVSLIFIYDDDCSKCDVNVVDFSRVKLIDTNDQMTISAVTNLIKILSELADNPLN

TvIPK^17-265 = molecular target: T2, TvIPK^17-265 (Terrestrivirus sp., UniProt A0A3G4ZNY6); test: X-ray crystal structure; type: binding; conditions: Cd2+ in place of Mg2+, soaked 5 mM, Pi present
T2 construct: gene Terrestrivirus9_15; truncated crystallization construct, residues 17-265, E. coli; residues 17-47 not traced; one molecule per asymmetric unit
T2 sequence (A0A3G4ZNY6 17-265): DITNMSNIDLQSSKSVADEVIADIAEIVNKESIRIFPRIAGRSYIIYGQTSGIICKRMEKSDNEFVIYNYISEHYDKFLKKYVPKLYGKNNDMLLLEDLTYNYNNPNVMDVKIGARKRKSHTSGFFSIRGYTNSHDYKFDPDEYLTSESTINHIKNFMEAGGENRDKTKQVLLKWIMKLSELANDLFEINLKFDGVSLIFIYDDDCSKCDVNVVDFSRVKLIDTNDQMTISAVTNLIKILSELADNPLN

HPLC with [gamma-33P]ATP = substrate: Nc1ncnc2c1ncn2[C@@H]1O[C@H](COP(=O)(O)OP(=O)(O)OP(=O)(O)O)[C@@H](O)[C@H]1O; test: HPLC with [gamma-33P]ATP; type: biochemical, Terrestrivirus sp.; conditions: 2 mM myo-IP6, 3.5 mM MgCl2, pH 7.2, 25 °C, labelled compound
[1] = substrate: O=P(O)(O)O[C@H]1[C@H](OP(=O)(O)O)[C@@H](OP(=O)(O)O)[C@H](OP(=O)(O)O)[C@@H](OP(=O)(O)O)[C@H]1OP(=O)(O)O; test: HPLC of [3H]IP6 pyrophosphorylation; type: biochemical, Terrestrivirus sp.; conditions: 1 mM ATP, 3.5 mM MgCl2, pH 7.2, 25 °C, creatine kinase / creatine phosphate ATP regeneration, labelled compound

In the case of `Nc1ncnc2c1ncn2[C@@H]1O[C@H](COP(=O)(O)OP(=O)(O)O)[C@@H](O)[C@H]1O` [ADP], the X-ray crystal structure (TvIPK (full length)) is reported as “in a binary complex of full-length TvIPK plus ADP”.

For `Nc1ncnc2c1ncn2[C@@H]1O[C@H](COP(=O)(O)OP(=O)(O)NP(=O)(O)O)[C@@H](O)[C@H]1O` [AMP-PNP], the X-ray crystal structure (TvIPK^17-265) was “We also derived crystal complexes with ATP and AMP-PNP”.

With `Nc1ncnc2c1ncn2[C@@H]1O[C@H](COP(=O)(O)OP(=O)(O)OP(=O)(O)O)[C@@H](O)[C@H]1O` [ATP] the X-ray crystal structure (TvIPK^17-265; two ATP conformations) was “by making this substitution, we derived an ATP/TvIPK crystal complex”.

B1: TvIPK (full length) (Terrestrivirus sp.) (protein)
chain: T1 sequence (A0A3G4ZNY6 1-265)
notes: full-length, codon-optimized, E. coli BL21(DE3); N-terminal His6-MBP tag removed with TEV protease
With B1 the Km (HPLC with [gamma-33P]ATP) was 1600 µM and the Km [1] was 81 µM.
